Laboratory results from ChEMBL document CHEMBL5226379, “Hypouricemic Actions of the Pericarp of Mangosteen in Vitro and in Vivo” (J Nat Prod, 2023).
Calls of active or inactive are those of the source. The rule behind the calls is not given here.

What was measured:
[1] = tested on: Rattus norvegicus; test: (§1) Anti-hyperuricemic activity against potassium oxonate-induced hyperuricemic Sprague-Dawley rat model assessed as glomerular load of urate measured per body surface area of 0.0311 m2 at 2 mg/kg, po pre-administered via gavage twice daily for 5 times followed by potassium oxonate injection for 1 hrs prior to last dose and measured after 3 hrs; type: functional; settings: time 123 hrs
[2] = tested on: Rattus norvegicus; test: (§2) Anti-hyperuricemic activity against potassium oxonate-induced hyperuricemic Sprague-Dawley rat model assessed as urinary urate level at 1 mg/kg, po pre-administered via gavage twice daily for 5 times followed by potassium oxonate injection for 1 hrs prior to last dose and measured after 3 hrs; type: functional; settings: time 123 hrs
[3] = tested on: Rattus norvegicus; test: Anti-hyperuricemic activity against potassium oxonate-induced hyperuricemic Sprague-Dawley rat model assessed as serum urea nitrogen level at 1 mg/kg, po pre-administered via gavage twice daily for 5 times followed by potassium oxonate injection for 1 hrs prior to last dose and measured after 3 hrs; type: functional; settings: time 123 hrs
[4] = tested on: Rattus norvegicus; test: as §1, with “clearance” for “glomerular load”, “creatinine” for “urate”; type: functional; settings: time 123 hrs
[5] = Acute toxicity in mouse assessed as behavioral changes at 50 g/Kg, IG measured for 14 days; settings: in vivo, po, 50000 mg/kg, 336 h, time 14 day
[6] = tested on: Rattus norvegicus; test: Anti-hyperuricemic activity against potassium oxonate-induced hyperuricemic Sprague-Dawley rat model assessed as urinary creatinine level at 4 mg/kg, po pre-administered via gavage twice daily for 5 times followed by potassium oxonate injection for 1 hrs prior to last dose and measured after 3 hrs; type: functional; settings: time 123 hrs
[7] = tested on: Mus musculus; test: Anti-hyperouricemic activity in uric acid-induced hyperuricemic Kunming mouse model assessed as decrease in serum uric acid level at 2 to 8 mg/kg, IG pre-administered via gavage twice daily for 5 times followed by uric acid injection for 30 mins prior to last dose by phosphotungstic acid method; type: functional, organism-based; settings: dose 2-8 mg/kg, time 5.0 day
[8] = tested on: Rattus norvegicus; test: Anti-hyperuricemic activity against potassium oxonate-induced hyperuricemic Sprague-Dawley rat model assessed as serum creatinine level at 1 mg/kg, po pre-administered via gavage twice daily for 5 times followed by potassium oxonate injection for 1 hrs prior to last dose and measured after 3 hrs; type: functional; settings: time 123 hrs
[9] = tested on: Rattus norvegicus; test: Anti-hyperuricemic activity against potassium oxonate-induced hyperuricemic Sprague-Dawley rat model assessed as ratio of urinary urate to urinary creatinine at 4 mg/kg, po pre-administered via gavage twice daily for 5 times followed by potassium oxonate injection for 1 hrs prior to last dose and measured after 3 hrs; type: functional; settings: time 123 hrs
[10] = tested on: Mus musculus; test: Hypouricemic activity in potassium oxonate-induced hyperuricemic Kunming mouse model assessed as decrease in serum uric acid level at 4 mg/kg, IG by phosphotungstic acid method; type: functional, organism-based; settings: time <= 6.0 hrs, TDE = time-dependent effect
[11] = tested on: Rattus norvegicus; test: Anti-hyperuricemic activity against potassium oxonate-induced hyperuricemic Sprague-Dawley rat model assessed as serum urate level at 2 mg/kg, po pre-administered via gavage twice daily for 5 times followed by potassium oxonate injection for 1 hrs prior to last dose and measured after 3 hrs; type: functional; settings: time 123 hrs
[12] = tested on: Mus musculus; test: Anti-hyperuricemic activity against uric acid-induced hyperuricemic Kunming mouse model assessed as decrease in URAT1 protein level in kidney at 2 to 8 mg/kg, pre-administered with uric acid for 3.5 days followed by compound administration via gavage twice a day for seven times by ELISA analysis; type: functional, organism-based; settings: dose 2-8 mg/kg, time 7.0 day
[13] = tested on: Rattus norvegicus; test: as §1, with “as clearance” for “as glomerular load”, “of creatinine” for “of urate”, “at 4” for “at 2”; type: functional; settings: time 123 hrs
[14] = biological target: T1, Xanthine dehydrogenase/oxidase (Homo sapiens, UniProt P47989); test: Inhibition of XOD (unknown origin) using xanthine as substrate assessed as inhibition of uric acid generation at 100 mg/L preincubated for 15 mins followed by xanthine addition and measured by spectrophotometric analysis relative to control
[15] = Acute toxicity in mouse assessed as mortality at 50 g/Kg, IG measured for 14 days; settings: in vivo, po, 50000 mg/kg, 336 h, time 14 day
[16] = tested on: Rattus norvegicus; test: as §2, with “assessed as increase in urinary urate” for “assessed as urinary urate”, “level at 2 mg/kg, po” for “level at 1 mg/kg, po”, “3 hrs relative to control” for “3 hrs”; type: functional; settings: time 123 hrs
[17] = organism: Homo sapiens; test: Inhibition of uricase (unknown origin) using uric acid as substrate at 37.5 mg/L preincubated with compounds for 15 mins followed by uric acid addition
[18] = tested on: Rattus norvegicus; test: (§3) Anti-hyperuricemic activity against potassium oxonate-induced hyperuricemic Sprague-Dawley rat model assessed as urinary urate level at 4 mg/kg, po pre-administered via gavage twice daily for 5 times followed by potassium oxonate injection for 1 hrs prior to last dose and measured after 3 hrs; type: functional; settings: time 123 hrs
[19] = tested on: Rattus norvegicus; test: Anti-hyperuricemic activity against potassium oxonate-induced hyperuricemic Sprague-Dawley rat model assessed as urinary urate at 1 mg/kg, po pre-administered via gavage twice daily for 5 times followed by potassium oxonate injection for 1 hrs prior to last dose and measured after 3 hrs; type: functional; settings: time 123 hrs
[20] = tested on: Rattus norvegicus; test: as §1, with “clearance” for “glomerular load”; type: functional; settings: time 123 hrs
[21] = tested on: Rattus norvegicus; test: Anti-hyperuricemic activity against potassium oxonate-induced hyperuricemic Sprague-Dawley rat model assessed as serum urate level at 4 mg/kg, po pre-administered via gavage twice daily for 5 times followed by potassium oxonate injection for 1 hrs prior to last dose and measured after 3 hrs; type: functional; settings: time 123 hrs
[22] = tested on: Rattus norvegicus; test: as §1, with “as excretion” for “as glomerular load”, “urate per volume of glomerular filtration” for “urate”, “at 4” for “at 2”; type: functional; settings: time 123 hrs
[23] = tested on: Rattus norvegicus; test: Anti-hyperuricemic activity against potassium oxonate-induced hyperuricemic Sprague-Dawley rat model assessed as serum creatinine level at 2 mg/kg, po pre-administered via gavage twice daily for 5 times followed by potassium oxonate injection for 1 hrs prior to last dose and measured after 3 hrs; type: functional; settings: time 123 hrs
[24] = tested on: Rattus norvegicus; test: as §3, with “assessed as increase in urinary urate” for “assessed as urinary urate”, “3 hrs relative to control” for “3 hrs”; type: functional; settings: time 123 hrs
[25] = tested on: Rattus norvegicus; test: as §1, with “as clearance” for “as glomerular load”, “at 1” for “at 2”; type: functional; settings: time 123 hrs
[26] = organism: Homo sapiens; test: Inhibition of uricase (unknown origin) using uric acid as substrate at 75 mg/L preincubated with compounds for 15 mins followed by uric acid addition
[27] = tested on: Rattus norvegicus; test: as §1, with “as clearance” for “as glomerular load”, “at 4” for “at 2”; type: functional; settings: time 123 hrs
[28] = tested on: Mus musculus; test: Hypouricemic activity in potassium oxonate-induced hyperuricemic Kunming mouse model assessed as decrease in serum uric acid level at 5 mg/kg, IG pre-administered via gavage twice daily for 5 times followed by potassium oxonate injection for 1 hrs prior to last dose by phosphotungstic acid method; type: functional; settings: time 5.0 day
[29] = tested on: Rattus norvegicus; test: as §1, with “excretion” for “glomerular load”, “urate per volume of glomerular filtration” for “urate”; type: functional; settings: time 123 hrs
[30] = tested on: Mus musculus; test: Anti-hyperouricemic activity in uric acid-induced hyperuricemic Kunming mouse model assessed as decrease in serum uric acid level at 4 mg/kg, IG pre-administered with uric acid for 30 mins followed by compound treatment and measured after 2 hrs by phosphotungstic acid method; type: functional, organism-based
[31] = tested on: Rattus norvegicus; test: Anti-hyperuricemic activity against potassium oxonate-induced hyperuricemic Sprague-Dawley rat model assessed as fractional excretion of urate at 4 mg/kg, po pre-administered via gavage twice daily for 5 times followed by potassium oxonate injection for 1 hrs prior to last dose and measured after 3 hrs relative to control; type: functional; settings: time 123 hrs
[32] = biological target: T1, Xanthine dehydrogenase/oxidase; test: Inhibition of XOD (unknown origin) using xanthine as substrate assessed as inhibition of uric acid generation at 150 mg/L preincubated for 15 mins followed by xanthine addition and measured by spectrophotometric analysis relative to control

T1 sequence (P47989 whole entry): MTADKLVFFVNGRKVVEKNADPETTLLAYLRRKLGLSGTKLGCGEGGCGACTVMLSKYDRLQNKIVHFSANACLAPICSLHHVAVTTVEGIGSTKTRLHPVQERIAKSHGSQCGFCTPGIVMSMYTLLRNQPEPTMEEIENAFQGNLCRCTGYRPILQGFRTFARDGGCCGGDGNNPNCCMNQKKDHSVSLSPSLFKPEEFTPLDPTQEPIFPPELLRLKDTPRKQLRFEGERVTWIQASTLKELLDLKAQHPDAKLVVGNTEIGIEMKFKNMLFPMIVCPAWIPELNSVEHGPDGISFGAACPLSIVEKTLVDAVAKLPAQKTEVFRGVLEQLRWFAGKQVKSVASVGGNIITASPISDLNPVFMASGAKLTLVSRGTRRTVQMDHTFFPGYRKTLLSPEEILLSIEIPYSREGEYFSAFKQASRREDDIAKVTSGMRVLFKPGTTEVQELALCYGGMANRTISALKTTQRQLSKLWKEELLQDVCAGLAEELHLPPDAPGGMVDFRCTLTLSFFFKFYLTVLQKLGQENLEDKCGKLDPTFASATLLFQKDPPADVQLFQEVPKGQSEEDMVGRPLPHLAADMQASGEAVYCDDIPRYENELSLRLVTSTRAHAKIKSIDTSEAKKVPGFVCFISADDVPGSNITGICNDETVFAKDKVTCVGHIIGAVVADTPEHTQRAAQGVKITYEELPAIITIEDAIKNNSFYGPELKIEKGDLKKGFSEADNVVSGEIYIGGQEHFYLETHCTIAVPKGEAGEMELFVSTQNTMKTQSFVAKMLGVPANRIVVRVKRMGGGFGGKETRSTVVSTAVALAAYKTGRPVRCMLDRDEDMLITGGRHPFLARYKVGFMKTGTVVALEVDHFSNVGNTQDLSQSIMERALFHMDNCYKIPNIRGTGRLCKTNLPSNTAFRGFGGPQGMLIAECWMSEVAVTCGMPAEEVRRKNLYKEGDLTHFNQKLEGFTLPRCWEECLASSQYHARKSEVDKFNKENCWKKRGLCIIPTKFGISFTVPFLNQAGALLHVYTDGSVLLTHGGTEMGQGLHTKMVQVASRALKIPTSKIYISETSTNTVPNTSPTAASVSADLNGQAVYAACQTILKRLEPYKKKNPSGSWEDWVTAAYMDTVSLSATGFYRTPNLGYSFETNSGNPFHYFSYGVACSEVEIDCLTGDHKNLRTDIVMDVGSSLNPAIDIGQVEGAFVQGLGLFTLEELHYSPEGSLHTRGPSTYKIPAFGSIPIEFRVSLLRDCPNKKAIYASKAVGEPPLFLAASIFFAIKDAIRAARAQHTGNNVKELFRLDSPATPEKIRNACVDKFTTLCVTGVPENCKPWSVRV

## COc1c(O)cc2oc3cc(O)c(CC=C(C)C)c(O)c3c(=O)c2c1CC=C(C)C [MANGOSTIN]
[1]
  Activity: 3.6 µmol/min
[2]
  Activity: 2.4 mmol/L
[3]
  Activity: 10.7 mmol/L
[4]
  Activity: 15.4 mL/min
[5]
  Activity: Non-Toxic
[6]
  Activity: 0.9 mmol/L
[7]
  Activity: Active
[8]
  Activity: 54.4 µmol/L
[9]
  Ratio: 2.9
[10]
  Activity: Tde
[11]
  Activity: 236 µmol/L
[12]
  Activity: inactive
[13]
  Activity: 18.6 mL/min
[14]
  inhibition at 100 µg/mL: 1.4%
[15]
  Activity: Non-Toxic
[16]
  Activity: 42%
[17]
  inhibition: 1.4%
[18]
  Activity: 2.4 mmol/L
[19]
  Activity: 501 µmol
[20]
  Activity: 11.2 mL/min
[21]
  Activity: 202 µmol/L
[22]
  Activity: 5.3 µmol/L
[23]
  Activity: 55.2 µmol/L
[24]
  Activity: 46%
[25]
  Activity: 13.6 mL/min
[26]
  inhibition: 2.6%
[27]
  Activity: 14 mL/min
[28]
  Activity: Active
[29]
  Activity: 5.8 µmol/L
[30]
  Activity: Active
[31]
  Activity: 85%
[32]
  inhibition at 150 µg/mL: 1.4%
